Source: publication PMC11023938 (Nature, 2024)

Tests used:
[1] = test system: bone marrow-derived neutrophils; experiment: Neutrophil transwell migration; type: cell-based, mouse; conditions: TSP-1 1, 10 or 100 nM
Procedure: Bone marrow cells were flushed from femora and tibiae of C57BL/6 J mice (8- to 12-week-old) with HBSS without Ca^2+ and Mg^2+ containing 2% FBS and 1 mM EDTA. Cell suspension was passed through a 70-μm strainer. Next, EasySep Mouse Neutrophil Enrichment Kit or EasySep Mouse Monocyte Isolation Kit ([sequence] Technologies) was used to isolate neutrophils or monocytes according to the manufacturer’s instructions. Neutrophils were resuspended in RPMI containing 100 units ml^−1 penicillin/streptomycin and 10% FBS for cell migration assay and cell death assay or 2% FBS for efferocytosis.
Assays were conducted using 6.5-mm-diameter culture plate inserts (Corning) with 5-μm and 3-μm pore sizes for macrophages and neutrophils, respectively. Macrophages (1 × 10^5) or neutrophils (3 × 10^5) in migration media (DMEM/F12 with 0.25% BSA) were added to the inserts. The lower chambers contained migration buffer alone or chemoattractant (mouse CCL2 10 ng ml^−1 for macrophages or mouse CXCL1/KC 150 ng ml^−1 for neutrophils, PeproTech) with or without CGRP. […] For neutrophils, cells that migrated into the lower chamber were collected and counted using a haemocytometer. The data are presented as the fold change, calculated by dividing the number of cells that migrated in response to treatments by the number of cells that migrated spontaneously (migration media only).

[2] = test system: bone marrow-derived macrophages; experiment: Macrophage transwell migration; type: cell-based, mouse; conditions: TSP-1 1, 10 or 100 nM
Procedure: Assays were conducted using 6.5-mm-diameter culture plate inserts (Corning) with 5-μm and 3-μm pore sizes for macrophages and neutrophils, respectively. Macrophages (1 × 10^5) or neutrophils (3 × 10^5) in migration media (DMEM/F12 with 0.25% BSA) were added to the inserts. The lower chambers contained migration buffer alone or chemoattractant (mouse CCL2 10 ng ml^−1 for macrophages or mouse CXCL1/KC 150 ng ml^−1 for neutrophils, PeproTech) with or without CGRP. Cells were allowed to migrate through the insert membrane for 3-4 h at 37 °C with 5% CO2. For macrophages, the inserts were then fixed with 4% paraformaldehyde, and cells on the upper side were removed. DAPI (1 μg ml^−1) was used to stain cells on the bottom side, and they were counted using a fluorescent microscope. […] The data are presented as the fold change, calculated by dividing the number of cells that migrated in response to treatments by the number of cells that migrated spontaneously (migration media only).
After 24 h, cells were collected for the migration assay.

[3] = test system: bone marrow-isolated neutrophils; experiment: Neutrophil cell death; type: cell-based, mouse; conditions: TSP-1 1, 10 or 100 nM, in the presence of inflammatory cytokines; dose-dependent
[4] = test system: bone marrow-derived macrophages; experiment: Macrophage cell death; type: cell-based, mouse; conditions: TSP-1 1, 10 or 100 nM, in the presence of inflammatory cytokines; dose-dependent
Procedure: Bone marrow cells from 8- to 12-week-old C57BL/6 J mice were flushed, filtered and cultured in conditioned medium (DMEM/F12 with 10% heat-inactivated FBS, 100 units ml^−1 penicillin/streptomycin, and 20% L929 fibroblasts-conditioned medium) at 37 °C with 5% CO2. After 7–9 days, differentiated macrophages were collected and seeded in 12-well or 6-well plates. The next day, cells were treated with CGRP (1 or 20 nM, Tocris Bioscience, 83651-90-5) for 20 min before exposure to mouse IL-1 (5 ng ml^−1) and TNF (50 ng ml^−1), IL-4 (2 ng ml^−1) and IL-13 (2 ng ml^−1), or IL-10 (2 ng ml^−1) (PeproTech Inc) for 24 or 72 h. Macrophages were detached with TrypLE (Gibco) containing 3 mM EDTA, stained with LIVE/DEAD Aqua dye for 20 min on ice, and incubated with blocking solution (10 μg ml^−1 TruStain FcX anti-CD16/32 (clone 93, BioLegend)) for 20 min before staining with antibodies for 30 min on ice. Antibodies from BioLegend included PE anti-CD11b (clone M1/70, 1 μg ml^−1), BV711 anti-F4/80 (clone BM8, 2 μg ml^−1), APC anti-CD80 (clone 16-10A1, 0.5 μg ml^−1) and PE-Cyanine7 anti-CD206 (clone C068C2, 1 μg ml^−1). […] After washing with Perm buffer and staining buffer, cells were analysed using BD LSR Fortessa X-20 and FlowJo software (BD Biosciences). […]

[5] = test system: bone marrow-derived macrophages; experiment: Macrophage efferocytosis of neutrophils; type: cell-based, mouse; conditions: macrophage treatment with TSP-1 1, 10 or 100 nM
Procedure: An efferocytosis assay kit (Cayman, 601770) was used following the manufacturer’s instructions. Neutrophils were labelled with CFSE and cultured in RPMI with 2% serum for 12 h to induce cell death. Bone marrow-derived macrophages cultured for 7 days were seeded at a density of 4 × 10^5 cells per well in a 6-well plate with DMEM/F12 containing 10% FBS and 100 units ml^−1 penicillin/streptomycin. Prior to the assay, macrophages were pre-treated with CGRP (1 or 20 nM) for 24 h. Macrophages were collected, labelled with CytoTell Blue, and then incubated with CFSE-labelled dead/dying neutrophils at different ratios (1:1, 1:2, and 1:4) at 37 °C for 15 min. The reaction was stopped by washing cells with ice-cold PBS containing 5% FBS and 1 mM EDTA. Cells were analysed with BD LSR Fortessa X-20 and FlowJo software (BD Biosciences). Macrophages were identified by CytoTell Blue-positive staining, and the efferocytosis index was calculated as the percentage of CFSE-positive cells in CytoTell Blue-labelled macrophages.
For the efferocytosis assay, cells were cultured with 1 nM CGRP immediately after transfection. After 24 h, cells were collected and co-cultured with dead or dying neutrophils.

[6] = test system: Nav1.8^cre/Rosa26^DTA mice; experiment: Flow cytometry of injured skin and muscle, nociceptor-ablated mice; type: in vivo, mouse; conditions: TSP-1 total 10 μg
Procedure: Skin wounds were collected using an 8-mm biopsy punch, and muscle defects were dissected to isolate the quadriceps. Samples were minced with scissors and subjected to two serial digestions with collagenase XI (1 mg ml^−1) at 37 °C (two times 20 min for skin, two times 15 min for muscle). After the first digestion, the supernatant was collected and mixed with neutralization buffer (DMEM/F12 with 10% FBS and 5 mM EDTA). The first collection was kept on ice and fresh collagenase XI was added to the undigested tissue for the second digestion. Digestion mixtures were passed through a 70-μm cell strainer and stained with LIVE/DEAD Fixable Aqua dye (Thermo Fisher Scientific, 1:400 dilution in PBS) for 20 min on ice. Cells were incubated with TruStain FcX anti-CD16/32 (10 μg ml^−1; clone 93, BioLegend) diluted in staining buffer (5% FBS and 2 mM EDTA in PBS) for 20 min and subsequently incubated with primary antibodies in staining buffer for a further 30 min on ice. The following anti-mouse antibodies from BioLegend were used: FITC anti-CD11b (clone M1/70, 6.6 μg ml^−1) or BV711 anti-CD11b (clone M1/70, 2 μg ml^−1); PE anti-F4/80 (clone BM8, 4 μg ml^−1); BV421 anti-Ly6G (clone 1A8, 2 μg ml^−1); BV711 anti-Ly6C (clone HK1.4, 1 μg ml^−1) or FITC anti-Ly6C (clone HK1.4, 5 μg ml^−1); PE-Cyanine7 anti-CD206 (clone C068C2, 2.6 μg ml^−1); APC anti-CD206 (clone C068C2, 2 μg ml^−^1); PE-Cyanine7 anti-CD3 (clone 17A2, 4 μg ml^−1); BV711 anti-CD3 (clone 17A2, 4 μg ml^−1);APC anti-CD4 (clone GK1.5, 2 μg ml^−1); BV421 anti-CD8 (clone 53-6.7, 2 μg ml^−1); PE anti-TCR β (clone H57-597, 2 μg ml^−1); APC/Fire 750 anti-TCR γ/δ (clone GL3, 2 μg ml^−1); PE-Cyanine anti-CD11c (clone N418, 2 μg ml^−1); APC/Fire 750 anti-MHC Class II (clone M5/114.15.2, 2 μg ml^−1). Cells were washed once with a large volume of staining buffer before analysis with BD LSR Fortessa X-20 and FlowJo software (BD Biosciences).

[7] = skin wound borders D1 and D3 or muscle defect via fibrin hydrogel, day 3 post-injury

thrombospondin-1 [TSP-1]
neutrophil migration towards CXCL1 [1]: inhibition of migration | macrophage migration towards CCL2 [2]: inhibition of migration | neutrophil death [3]: accelerated death | macrophage death [4]: accelerated death | efferocytosis of neutrophils by macrophages [5]: greatly enhanced | CD206 expression in injured tissue ([6]; skin and muscle injuries, day 14 post-injury): increase | number of inflammatory monocytes/macrophages (Ly6C^hi) in injured tissue [6, 7]: reduced numbers | number of monocytes/macrophages in injured tissue [6, 7]: reduced numbers | number of neutrophils in injured tissue [6, 7]: reduced numbers
